Assay results from ChEMBL document CHEMBL1131038, “Derivatives of the triazoloquinazoline adenosine antagonist (CGS 15943) having high potency at the human A2B and A3 receptor subtypes” (J Med Chem, 1998).

Columns and labels:
Adenosine receptor A2b [1] = target: T1, Adenosine receptor A2b (Homo sapiens, UniProt P29275); assay: pA2 value at human Adenosine A2B receptor from Schild plots with slopes approaching unity; conditions: read-out: pA2 (converted)
T1 sequence (P29275 whole entry): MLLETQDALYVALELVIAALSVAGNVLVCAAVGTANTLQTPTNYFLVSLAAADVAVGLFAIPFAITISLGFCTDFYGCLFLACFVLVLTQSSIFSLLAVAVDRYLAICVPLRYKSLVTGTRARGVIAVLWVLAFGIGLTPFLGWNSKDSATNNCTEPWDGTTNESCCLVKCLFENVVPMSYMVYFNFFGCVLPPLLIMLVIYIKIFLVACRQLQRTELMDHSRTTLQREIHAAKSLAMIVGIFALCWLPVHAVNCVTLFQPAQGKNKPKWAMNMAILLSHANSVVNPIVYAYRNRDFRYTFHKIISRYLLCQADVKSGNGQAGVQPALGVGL

[2] = target: T2, Adenosine receptor A2b (Homo sapiens) (UniProt P29275); assay: Inhibition at 50 uM on cAMP production induced by 50 uM 5`-(N-ethylcarboxamido)adenosine in CHO cell line transfected with human Adenosine A2B receptor cDNA; assay type: cell-based
T2 sequence (whole entry): T1 sequence (P29275 whole entry)

[3] = Ratio against rat A2A receptor and Human A3 receptor
Adenosine receptor A1 = target: T3, Adenosine receptor A1 (Rattus norvegicus, UniProt P25099)
T3 sequence (P25099 whole entry): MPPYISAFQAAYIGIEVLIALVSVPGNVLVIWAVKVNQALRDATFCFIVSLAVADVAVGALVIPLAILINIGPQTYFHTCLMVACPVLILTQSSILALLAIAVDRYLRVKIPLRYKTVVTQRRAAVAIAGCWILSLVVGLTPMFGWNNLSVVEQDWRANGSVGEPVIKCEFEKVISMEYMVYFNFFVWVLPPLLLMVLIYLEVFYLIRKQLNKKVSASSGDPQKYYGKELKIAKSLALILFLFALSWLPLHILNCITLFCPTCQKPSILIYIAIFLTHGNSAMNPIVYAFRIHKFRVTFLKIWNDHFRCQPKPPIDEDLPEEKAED
Description: Binding affinity was determined in radioligand binding assay at rat brain adenosine A1 receptor vs [3H]R-PIA

Adenosine receptor A2b [4] = target: T1, Adenosine receptor A2b; assay: Inhibition of 50 uM 5`-(N-ethylcarboxamido)adenosine induced cAMP production in CHO cell line expressing human Adenosine A2B receptor; assay type: cell-based
Adenosine receptor A2a = Adenosine receptor A2a (Rattus norvegicus, UniProt P30543); assay: Binding affinity was determined in radioligand binding assay at rat striatal Adenosine A2A receptor vs [3H]-CGS- 21680
[5] = Ratio against rat A1 receptor and Human A3 receptor
Adenosine receptor A2b [6] = target: T1, Adenosine receptor A2b; assay: Inhibition of 50 uM 5`-(N-ethylcarboxamido)adenosine induced cAMP production in CHO cell line expressing human Adenosine A2B receptor at 50 uM; assay type: functional, cell-based
Adenosine receptor A3 = target: T4, Adenosine receptor A3 (Homo sapiens, UniProt P0DMS8); assay: biochemical
T4 sequence (P0DMS8 whole entry): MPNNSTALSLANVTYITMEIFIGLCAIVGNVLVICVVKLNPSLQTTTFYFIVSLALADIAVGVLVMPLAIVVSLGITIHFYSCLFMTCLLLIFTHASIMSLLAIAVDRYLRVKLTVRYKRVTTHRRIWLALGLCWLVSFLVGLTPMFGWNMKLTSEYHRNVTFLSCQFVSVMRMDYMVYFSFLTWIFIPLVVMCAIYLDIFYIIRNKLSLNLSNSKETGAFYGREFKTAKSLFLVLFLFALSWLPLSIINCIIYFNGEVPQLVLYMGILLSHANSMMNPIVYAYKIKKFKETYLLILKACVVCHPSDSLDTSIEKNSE
Description: Binding affinity at cloned human adenosine A3 receptor expressed in HEK293 cells was determined using [125I]AB-MECA as radioligand

Chain of Adenosine receptor A2a (P30543 whole entry): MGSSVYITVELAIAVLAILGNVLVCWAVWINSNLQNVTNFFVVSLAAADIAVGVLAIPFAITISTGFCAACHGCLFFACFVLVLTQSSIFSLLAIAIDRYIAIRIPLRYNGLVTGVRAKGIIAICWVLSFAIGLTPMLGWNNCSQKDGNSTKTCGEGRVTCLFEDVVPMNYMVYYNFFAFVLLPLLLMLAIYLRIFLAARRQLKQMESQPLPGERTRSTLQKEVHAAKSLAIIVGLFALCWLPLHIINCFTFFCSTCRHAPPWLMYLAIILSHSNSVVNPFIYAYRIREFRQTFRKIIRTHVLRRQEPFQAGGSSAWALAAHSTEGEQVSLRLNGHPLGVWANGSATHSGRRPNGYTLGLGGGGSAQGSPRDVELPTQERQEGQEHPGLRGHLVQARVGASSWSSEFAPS

Kb (Adenosine receptor A2b [1]) | inhibition [2] | Selectivity ratio [3] | Ki (Adenosine receptor A1) | IC50 (Adenosine receptor A2b [4]) | Ki (Adenosine receptor A2a) | Selectivity ratio [5] | IC50 (Adenosine receptor A2b [6]) | Ki (Adenosine receptor A3) | SMILES
10 nM | 100% | 0.017 | 8.75 nM | 270 nM | 1.38 nM | 0.11 |  |  | NCCCC(=O)Nc1nc2ccc(Cl)cc2c2nc(-c3ccco3)nn12
 |  | 0.014 | 45 nM |  | 1.15 nM | 0.55 | 1900 nM | 81.3 nM | O=C(O)CCCC(=O)Nc1nc2ccc(Cl)cc2c2nc(-c3ccco3)nn12
